Experimental data as given in PubChem BioAssay AID250 (DTP/NCI, 2004).
Values joined by “and” are separate entries in the source; they are usually repeats but may differ in a detail not shown here. Equal values may be shown once. Toxic doses and inconclusive results are not listed.

Test system: BDF1 mice, L1210 leukemia sc, survival T/C
Experiment: NCI In Vivo Anticancer Drug Screen. Data for tumor model L1210 Leukemia (subcutaneous) in B6D2F1 (BDF1) mice
Conditions: endpoint: median survival time, higher = longer survival
Outline: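 Read-out: T/C ratio, i.e. survival or tumor size in treated mice over that in vehicle-treated controls, from mice bearing transplantable tumors.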

[1] = dose: 65.0 mg/kg/injection, schedule: Q01DX Z (sc), vehicle: saline
[2] = dose: 108.0 mg/kg/injection, schedule: Q01DX Z (sc), vehicle: saline
[3] = dose: 180.0 mg/kg/injection, schedule: Q01DX Z (sc), vehicle: saline
[4] = dose: 300.0 mg/kg/injection, schedule: Q01DX Z (sc), vehicle: saline

SMILES: N[C@H](C(=O)O)[C@H]1ON=C(Cl)[C@@H]1O
- T/C (dose: 8.0 mg/kg/injection, schedule: Q01DX009 (sc), vehicle: saline): 111 % of control
- T/C (dose: 32.0 mg/kg/injection, schedule: Q01DX009 (sc), vehicle: saline): 150 % of control and 156 % of control
- T/C (dose: 64.0 mg/kg/injection, schedule: Q01DX009 (sc), vehicle: saline): 153 % of control and 156 % of control
- T/C (dose: 128.0 mg/kg/injection, schedule: Q01DX009 (sc), vehicle: saline): 156 % of control and 160 % of control
- T/C (dose: 256.0 mg/kg/injection, schedule: Q01DX009 (sc), vehicle: saline): 157 % of control and 176 % of control
- T/C (dose: 512.0 mg/kg/injection, schedule: Q01DX009 (sc), vehicle: saline): 176 % of control
- T/C (dose: 1024.0 mg/kg/injection, schedule: Q01DX009 (sc), vehicle: saline): 177 % of control

SMILES: NC(=S)N/N=C/c1ccc(O)cn1
- T/C (dose: 8.4 mg/kg/injection, schedule: Q03HX024 (sc), vehicle: none): 120 % of control
- T/C (dose: 10.0 mg/kg/injection, schedule: Q03HX024 (sc), vehicle: other): 155 % of control
- T/C (dose: 20.0 mg/kg/injection, schedule: Q03HX024 (ip), vehicle: other): 183 % of control
- T/C (dose: 20.0 mg/kg/injection, schedule: Q03HX024 (sc), vehicle: other): 177 % of control
- T/C (dose: 23.0 mg/kg/injection, schedule: Q03HX024 (sc), vehicle: none): 175 % of control
- T/C (dose: 30.0 mg/kg/injection, schedule: Q03HX024 (ip), vehicle: other): 238 % of control
- T/C (dose: 30.0 mg/kg/injection, schedule: Q03HX024 (sc), vehicle: other): 266 % of control
- T/C (dose: 39.0 mg/kg/injection, schedule: Q03HX024 (sc), vehicle: none): 165 % of control
- T/C (dose: 50.0 mg/kg/injection, schedule: Q04DX003 (sc), vehicle: other): 107 % of control and 110 % of control
- T/C (dose: 60.0 mg/kg/injection, schedule: Q03HX024 (ip), vehicle: other): 100 % of control
- T/C (dose: 65.0 mg/kg/injection, schedule: Q01DX009 (sc), vehicle: other): 158 % of control and 166 % of control
- T/C [1]: 104 % of control
- T/C (dose: 65.0 mg/kg/injection, schedule: Q08DX009 (sc), vehicle: none): 150 % of control
- T/C (dose: 100.0 mg/kg/injection, schedule: Q01DX009 (ip), vehicle: other): 150 % of control
- T/C (dose: 100.0 mg/kg/injection, schedule: Q01DX009 (sc), vehicle: other): 155 % of control
- T/C (dose: 100.0 mg/kg/injection, schedule: Q04DX003 (ip), vehicle: other): 111 % of control
- T/C (dose: 100.0 mg/kg/injection, schedule: Q04DX003 (sc), vehicle: other): 107 % of control and 110 % of control and 111 % of control
- T/C (dose: 108.0 mg/kg/injection, schedule: Q01DX009 (sc), vehicle: other): 163 % of control and 166 % of control
- T/C [2]: 104 % of control
- T/C (dose: 108.0 mg/kg/injection, schedule: Q04DX003 (sc), vehicle: none): 100 % of control
- T/C (dose: 108.0 mg/kg/injection, schedule: Q04DX003 (sc), vehicle: other): 103 % of control and 105 % of control
- T/C (dose: 108.0 mg/kg/injection, schedule: Q08DX009 (sc), vehicle: none): 155 % of control
- T/C (dose: 180.0 mg/kg/injection, schedule: Q01DX009 (sc), vehicle: other): 170 % of control and 177 % of control
- T/C [3]: 104 % of control
- T/C (dose: 180.0 mg/kg/injection, schedule: Q02DX005 (sc), vehicle: other): 99 % of control
- T/C (dose: 180.0 mg/kg/injection, schedule: Q04DX003 (sc), vehicle: none): 100 % of control
- T/C (dose: 180.0 mg/kg/injection, schedule: Q04DX003 (sc), vehicle: other): 104 % of control and 105 % of control
- T/C (dose: 180.0 mg/kg/injection, schedule: Q08DX009 (sc), vehicle: none): 150 % of control
- T/C (dose: 180.0 mg/kg/injection, schedule: Q11HX006 (sc), vehicle: water): 122 % of control
- T/C (dose: 200.0 mg/kg/injection, schedule: Q01DX009 (ip), vehicle: other): 150 % of control
- T/C (dose: 200.0 mg/kg/injection, schedule: Q01DX009 (sc), vehicle: other): 150 % of control
- T/C (dose: 200.0 mg/kg/injection, schedule: Q04DX003 (ip), vehicle: other): 111 % of control
- T/C (dose: 200.0 mg/kg/injection, schedule: Q04DX003 (sc), vehicle: other): 98 % of control and 100 % of control and 116 % of control
- T/C (dose: 300.0 mg/kg/injection, schedule: Q01DX009 (sc), vehicle: other): 150 % of control
- T/C [4]: 108 % of control
- T/C (dose: 300.0 mg/kg/injection, schedule: Q02DX005 (sc), vehicle: other): 108 % of control
- T/C (dose: 300.0 mg/kg/injection, schedule: Q04DX003 (sc), vehicle: none): 100 % of control
- T/C (dose: 300.0 mg/kg/injection, schedule: Q04DX003 (sc), vehicle: other): 105 % of control and 111 % of control
- T/C (dose: 300.0 mg/kg/injection, schedule: Q04DX003 (sc), vehicle: water): 111 % of control
- T/C (dose: 300.0 mg/kg/injection, schedule: Q08DX009 (sc), vehicle: none): 160 % of control
- T/C (dose: 300.0 mg/kg/injection, schedule: Q11HX006 (sc), vehicle: water): 122 % of control
- T/C (dose: 400.0 mg/kg/injection, schedule: Q01DX009 (sc), vehicle: other): 88 % of control
- T/C (dose: 400.0 mg/kg/injection, schedule: Q04DX003 (ip), vehicle: other): 111 % of control
- T/C (dose: 400.0 mg/kg/injection, schedule: Q04DX003 (sc), vehicle: other): 99 % of control and 100 % of control and 116 % of control
- T/C (dose: 500.0 mg/kg/injection, schedule: Q02DX005 (sc), vehicle: other): 100 % of control and 117 % of control
- T/C (dose: 500.0 mg/kg/injection, schedule: Q04DX003 (sc), vehicle: none): 100 % of control
- T/C (dose: 500.0 mg/kg/injection, schedule: Q04DX003 (sc), vehicle: other): 106 % of control and 111 % of control
- T/C (dose: 833.0 mg/kg/injection, schedule: Q02DX005 (sc), vehicle: other): 105 % of control and 60 % of control
- T/C (dose: 1388.0 mg/kg/injection, schedule: Q02DX005 (sc), vehicle: other): 120 % of control and 60 % of control

SMILES: CCOC(=O)C(N)Cc1ccc(N(CCCl)CCCl)cc1 (stereo not given)
- T/C (dose: 23.0 mg/kg/injection, schedule: Q01DX Z (sc), vehicle: saline): 110 % of control and 119 % of control
- T/C (dose: 39.0 mg/kg/injection, schedule: Q01DX Z (sc), vehicle: saline): 104 % of control and 110 % of control
- T/C [1]: 100 % of control and 104 % of control
- T/C [2]: 90 % of control

SMILES: CCOC(=O)NP(=O)(N1CC1)N1CC1
- T/C (dose: 5.0 mg/kg/injection, schedule: Q01DX Z (sc), vehicle: water): 120 % of control
- T/C (dose: 14.0 mg/kg/injection, schedule: Q01DX Z (sc), vehicle: water): 150 % of control
- T/C (dose: 23.0 mg/kg/injection, schedule: Q02DX Z (sc), vehicle: water): 170 % of control
- T/C (dose: 23.0 mg/kg/injection, schedule: Q## X Z (sc), vehicle: water): 165 % of control
- T/C (dose: 39.0 mg/kg/injection, schedule: Q01DX001 (sc), vehicle: water): 160 % of control
- T/C (dose: 39.0 mg/kg/injection, schedule: Q07DX Z (sc), vehicle: water): 150 % of control

SMILES: CCOC(N)=O
- T/C [1]: 95 % of control
- T/C [2]: 100 % of control
- T/C [3]: 100 % of control
- T/C [4]: 100 % of control
- T/C (dose: 500.0 mg/kg/injection, schedule: Q01DX Z (sc), vehicle: saline): 90 % of control

SMILES: [I][Hg][CH2]C1COC([CH2][Hg][I])CO1 (stereo not given)
- T/C (dose: 14.0 mg/kg/injection, schedule: Q01DX Z (sc), vehicle: other): 100 % of control
- T/C (dose: 23.0 mg/kg/injection, schedule: Q01DX Z (sc), vehicle: other): 100 % of control
- T/C (dose: 39.0 mg/kg/injection, schedule: Q01DX Z (sc), vehicle: other): 105 % of control
- T/C (dose: 65.0 mg/kg/injection, schedule: Q01DX Z (sc), vehicle: other): 100 % of control
- T/C (dose: 108.0 mg/kg/injection, schedule: Q01DX Z (sc), vehicle: other): 111 % of control

SMILES: CN(C)c1ccc(/C=C/c2cc[n+](C)c3ccccc23)cc1
- T/C (dose: 0.65 mg/kg/injection, schedule: Q01DX Z (sc), vehicle: methylcellulose (MC)): 109 % of control
- T/C (dose: 1.08 mg/kg/injection, schedule: Q01DX Z (sc), vehicle: methylcellulose (MC)): 109 % of control
- T/C (dose: 1.8 mg/kg/injection, schedule: Q01DX Z (sc), vehicle: methylcellulose (MC)): 109 % of control
- T/C (dose: 3.0 mg/kg/injection, schedule: Q01DX Z (sc), vehicle: methylcellulose (MC)): 109 % of control

SMILES: CCCCNc1ncnc2c1cnn2C
- T/C (dose: 23.3 mg/kg/injection, schedule: Q01DX Z (sc), vehicle: methylcellulose (MC)): 105 % of control
- T/C (dose: 38.9 mg/kg/injection, schedule: Q01DX Z (sc), vehicle: methylcellulose (MC)): 110 % of control
- T/C (dose: 64.8 mg/kg/injection, schedule: Q01DX Z (sc), vehicle: methylcellulose (MC)): 110 % of control
- T/C (dose: 108.0 mg/kg/injection, schedule: Q01DX Z (sc), vehicle: methylcellulose (MC)): 110 % of control
- T/C (dose: 180.0 mg/kg/injection, schedule: Q01DX Z (sc), vehicle: methylcellulose (MC)): 100 % of control
